The source of these data is PubChem BioAssay (NCI).

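Interpolation was linear, between the two tested concentrations surrounding the appropriate level; five concentrations were tested over 48 hours in 96-well plates. GI50 marks 50% less growth. TGI is the concentration that stops growth completely.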

The subject of the first assay is IGROV1 ovarian. Kind of assay: NCI anticancer screen, dose series, 48 h.
Regarding `C=CCNC(=S)/N=C/c1c(O)c2ccccc2oc1=O`, the TGI was over 100 µM.

Turning to `CCOC(=O)c1c(-c2ccc(OC)cc2)c(C#N)c(=S)n(C2OC(COC(C)=O)C(OC(C)=O)C(OC(C)=O)C2OC(C)=O)c1C` (centres undefined), the TGI was over 100 µM.

For the molecule `C1=CC2=CC=CC3c4nc5ccc6ccccc6c5nc4C(=C1)C23` (centres undefined), the TGI is over 100 µM.

For the molecule `O=C(CCCN1CCC2(CC1)CC(=O)N(N1CCOCC1)C2=O)c1ccccc1`, the TGI is over 100 µM.

In turn, `CC(=O)N(C(C)=O)C1=C2c3ccccc3N(S(=O)(=O)c3ccccc3)C2n2c(=O)n(-c3ccccc3)c(=O)n2C1` (centres undefined) returned a TGI of over 100 µM.

In turn, `COc1ccc(C(OCC2OC(n3cc(C)c(=O)[nH]c3=O)CC2n2cc(Cn3cc(F)c(=O)[nH]c3=O)nn2)(c2ccccc2)c2ccccc2)cc1` (centres undefined) came in with a TGI of 36.4 µM.

Turning to `C=CCn1c(=O)ccn(COCCO)c1=O`, the TGI was over 100 µM.

For `O=C(NC(Cc1ccc(I)cc1)C(=O)O)c1ccc(I)cc1` (centres undefined), the TGI was over 47.6 µM.

In the case of `CCCCC1c2c([nH]c3ccccc23)C2C(=O)N(c3ccc(OC)cc3)C(=O)C2C1CCC` (centres undefined), the TGI was over 10 µM.

Consider `C(=N\NC1=NCCCN1)/c1ccc2ccccc2c1`, for which the TGI was found to be 32.1 µM.

For `O=C(N=Nc1cc(Cl)ccc1Cl)NNc1cc(Cl)ccc1Cl`, the TGI was 57.3 µM.

`CSc1cc(Cl)c(C)cc1S(=O)(=O)NC(=O)NNc1ccc(Cl)cc1`: the TGI is over 100 µM.

`O=C(CNc1ccccc1Cl)Nn1c(-c2ccccc2)nc2ccccc2c1=O` registered a TGI of 75.4 µM.

With `O=c1ccc2cc3ccc4cccc5ccc(c2o1)c3c45`, the TGI is over 100 µM.

With `CC1(C)N=C(C(N)=O)c2ncn(CCCO)c2N1`, the TGI is over 100 µM.

Molecule `O=S(=O)(O)c1cc2ccc1/C=C\c1ccc(cc1S(=O)(=O)O)N=Nc1ccc(c(S(=O)(=O)O)c1)/C=C\c1ccc(cc1S(=O)(=O)O)N=N2` returned a TGI of over 100 µM.

The subject of a further assay is EKVX NSCLC. The experiment in a line: NCI anticancer screen, dose series, 48 h.
`CC(=O)O[C@]12CCCCCC1C1(O)C(O)CCC[C@H]12` (some centres undefined) came in with a TGI of over 100 µM.

As to `CC(C)(C)NC(=O)/C(=C\Sc1ccccc1)c1ccc2c(c1)OCO2`, the TGI is over 100 µM.

In turn, `COCOc1ccc(Cn2c(=O)n(C)c(=O)c3c2ncn3C)cc1[N+](=O)[O-]` registered a TGI of over 100 µM.

In turn, `Cc1c2c(n(CCc3ccc(Cl)cc3)c1C)NN=C(C#N)S2(=O)=O` had a TGI of over 100 µM.

For the molecule `COc1ccc2cc(-c3ccc(-c4ccc(C(=N)N)s4)s3)ccc2c1`, the GI50 was 2140 nM and the TGI was 6.1 µM.

Turning to `N#CCCN(CCC#N)c1ccc(/C=C2\N=C(c3ccccc3)N(c3ccc(Cl)cc3)C2=O)cc1`, the TGI is over 100 µM.

Regarding `Cc1c(S(=O)(=O)/N=C(\N)Nc2ccc(Cl)cc2)sc2ccc(Cl)cc12`, the TGI was 33.4 µM.

Turning to `Cc1cc(=O)c2c([nH]1)NS(=O)(=O)NC2=O`, the TGI was over 100 µM.

With `COc1cc([N+](=O)[O-])c(OC)cc1-c1nc2sc(Cl)cn2c1/C=N/Nc1ccccn1`, the GI50 was over 50000 nM and the TGI is over 50 µM.

In turn, `CC(=O)N/N=C1\NC(=O)C[C@H]2[C@@H]3CC=C4C[C@@H](OC(C)=O)CC[C@]4(C)[C@H]3CC[C@]12C` displayed a TGI of over 100 µM.

Take `C=C[C@@H]1C(CO)=CCC2[C@H]1CCC1C(C)(C)C(=O)CC[C@]21C` (some centres undefined): the TGI is over 100 µM.

In turn, `COc1ccc2nc3cc(Cl)ccc3c(NCCCNCCCNc3c4ccc(Cl)cc4nc4ccc(OC)cc34)c2c1` registered a TGI of 0.89 µM.

`C=CCNC(=S)/N=C/c1c(O)c2ccccc2oc1=O` gave a TGI of over 100 µM.

`CCOC(=O)c1c(-c2ccc(OC)cc2)c(C#N)c(=S)n(C2OC(COC(C)=O)C(OC(C)=O)C(OC(C)=O)C2OC(C)=O)c1C` (centres undefined): the TGI was over 100 µM.

In the case of `C1=CC2=CC=CC3c4nc5ccc6ccccc6c5nc4C(=C1)C23` (centres undefined), the TGI was over 100 µM.

`O=C(CCCN1CCC2(CC1)CC(=O)N(N1CCOCC1)C2=O)c1ccccc1` came in with a TGI of over 100 µM.

In turn, `CC(=O)N(C(C)=O)C1=C2c3ccccc3N(S(=O)(=O)c3ccccc3)C2n2c(=O)n(-c3ccccc3)c(=O)n2C1` (centres undefined) showed a TGI of 61.9 µM.

In the case of `COc1ccc(C(OCC2OC(n3cc(C)c(=O)[nH]c3=O)CC2n2cc(Cn3cc(F)c(=O)[nH]c3=O)nn2)(c2ccccc2)c2ccccc2)cc1` (centres undefined), the TGI is 23.3 µM.

On to `C=CCn1c(=O)ccn(COCCO)c1=O`, for which the TGI is over 100 µM.

As to `O=C(NC(Cc1ccc(I)cc1)C(=O)O)c1ccc(I)cc1` (centres undefined), the TGI is over 83.6 µM.

`CCCCC1c2c([nH]c3ccccc23)C2C(=O)N(c3ccc(OC)cc3)C(=O)C2C1CCC` (centres undefined): the TGI is over 10 µM.

Consider `C(=N\NC1=NCCCN1)/c1ccc2ccccc2c1`, for which the TGI was 32.8 µM.

Turning to `CSc1cc(Cl)c(C)cc1S(=O)(=O)NC(=O)NNc1ccc(Cl)cc1`, the TGI is over 100 µM.

On to `O=C(CNc1ccccc1Cl)Nn1c(-c2ccccc2)nc2ccccc2c1=O`, for which the TGI was found to be 36.8 µM.

As to `O=c1ccc2cc3ccc4cccc5ccc(c2o1)c3c45`, the TGI is over 100 µM.

Molecule `CC1(C)N=C(C(N)=O)c2ncn(CCCO)c2N1` came in with a TGI of over 100 µM.

As for `O=S(=O)(O)c1cc2ccc1/C=C\c1ccc(cc1S(=O)(=O)O)N=Nc1ccc(c(S(=O)(=O)O)c1)/C=C\c1ccc(cc1S(=O)(=O)O)N=N2`, the TGI was over 100 µM.

The test system of the next assay is CAKI-1 renal. The experiment in a line: NCI anticancer screen, dose series, 48 h.
Consider `CC(C)(C)NC(=O)/C(=C\Sc1ccccc1)c1ccc2c(c1)OCO2`, for which the TGI is over 100 µM.

Turning to `COc1ccc2cc(-c3ccc(-c4ccc(C(=N)N)s4)s3)ccc2c1`, the GI50 is 8.29 µM and the TGI was 21.9 µM.

`Cc1cc(=O)c2c([nH]1)NS(=O)(=O)NC2=O` yielded a TGI of over 100 µM.

As to `CC(=O)N/N=C1\NC(=O)C[C@H]2[C@@H]3CC=C4C[C@@H](OC(C)=O)CC[C@]4(C)[C@H]3CC[C@]12C`, the TGI is over 100 µM.

`C=C[C@@H]1C(CO)=CCC2[C@H]1CCC1C(C)(C)C(=O)CC[C@]21C` (some centres undefined): the TGI is over 100 µM.

For the molecule `C=CCNC(=S)/N=C/c1c(O)c2ccccc2oc1=O`, the TGI was determined as 82.6 µM.

In turn, `CCOC(=O)c1c(-c2ccc(OC)cc2)c(C#N)c(=S)n(C2OC(COC(C)=O)C(OC(C)=O)C(OC(C)=O)C2OC(C)=O)c1C` (centres undefined) had a TGI of over 100 µM.

As to `C1=CC2=CC=CC3c4nc5ccc6ccccc6c5nc4C(=C1)C23` (centres undefined), the TGI is over 100 µM.

In the case of `O=C(CCCN1CCC2(CC1)CC(=O)N(N1CCOCC1)C2=O)c1ccccc1`, the TGI was over 100 µM.

Regarding `CC(=O)N(C(C)=O)C1=C2c3ccccc3N(S(=O)(=O)c3ccccc3)C2n2c(=O)n(-c3ccccc3)c(=O)n2C1` (centres undefined), the TGI was over 100 µM.

`COc1ccc(C(OCC2OC(n3cc(C)c(=O)[nH]c3=O)CC2n2cc(Cn3cc(F)c(=O)[nH]c3=O)nn2)(c2ccccc2)c2ccccc2)cc1` (centres undefined) gave a TGI of 25 µM.

The molecule `C=CCn1c(=O)ccn(COCCO)c1=O` returned a TGI of over 100 µM.

Take `O=C(NC(Cc1ccc(I)cc1)C(=O)O)c1ccc(I)cc1` (centres undefined): the TGI is over 100 µM.

In the case of `CCCCC1c2c([nH]c3ccccc23)C2C(=O)N(c3ccc(OC)cc3)C(=O)C2C1CCC` (centres undefined), the TGI came to 6.25 µM.

Molecule `O=C(N=Nc1cc(Cl)ccc1Cl)NNc1cc(Cl)ccc1Cl` displayed a TGI of 43.7 µM.

As for `CSc1cc(Cl)c(C)cc1S(=O)(=O)NC(=O)NNc1ccc(Cl)cc1`, the TGI is over 100 µM.

In the case of `O=c1ccc2cc3ccc4cccc5ccc(c2o1)c3c45`, the TGI was over 100 µM.

On to `CC1(C)N=C(C(N)=O)c2ncn(CCCO)c2N1`, for which the TGI was over 100 µM.
